Results as given in ChEMBL document CHEMBL2346553, “Synthesis and evaluation of non-dimeric HCV NS5A inhibitors” (Bioorg Med Chem Lett, 2013).

Assays:
PBMC = settings: human
CCRF-CEM = settings: human
Hepatitis C virus = assay: microbe, parasite or virus in culture; settings: genotype 1b, Huh-7
in vitro [1] = settings: human, HuH7 cells
Vero = settings: chlorocebus sabaeus
CYP2D6 = CYP2D6 (Homo sapiens, UniProt P10635); assay: in vitro
CYP3A4 = CYP3A4 (Homo sapiens, UniProt P08684); assay: in vitro
Cytochrome P450 1A2 = molecular target: T1, Cytochrome P450 1A2 (Homo sapiens, UniProt P05177)
T1 sequence (P05177 whole entry): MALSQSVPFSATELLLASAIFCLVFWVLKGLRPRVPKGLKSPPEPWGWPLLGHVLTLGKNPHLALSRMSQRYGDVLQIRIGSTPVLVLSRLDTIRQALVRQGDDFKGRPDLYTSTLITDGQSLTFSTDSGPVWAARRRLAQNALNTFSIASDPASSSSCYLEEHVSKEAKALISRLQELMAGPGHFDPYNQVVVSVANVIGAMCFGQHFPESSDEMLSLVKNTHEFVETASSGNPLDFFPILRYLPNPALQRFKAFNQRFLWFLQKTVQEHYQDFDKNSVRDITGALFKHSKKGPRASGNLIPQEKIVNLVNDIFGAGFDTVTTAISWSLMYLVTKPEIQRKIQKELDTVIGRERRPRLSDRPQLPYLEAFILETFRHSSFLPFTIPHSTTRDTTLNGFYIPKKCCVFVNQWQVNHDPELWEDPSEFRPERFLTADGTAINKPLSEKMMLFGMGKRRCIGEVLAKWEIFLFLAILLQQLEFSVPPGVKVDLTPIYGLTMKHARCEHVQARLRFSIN

CYP1A2 = molecular target: T2, CYP1A2 (Homo sapiens, UniProt P05177); assay: in vitro
T2 sequence (P05177 whole entry): T1 sequence (P05177 whole entry)

Cytochrome P450 3A4 = Cytochrome P450 3A4 (Homo sapiens, UniProt P08684)
Cytochrome P450 2D6 = Cytochrome P450 2D6 (Homo sapiens, UniProt P10635)
CYP2C9 = CYP2C9 (Homo sapiens, UniProt P11712); assay: in vitro
Cytochrome P450 2C9 = Cytochrome P450 2C9 (Homo sapiens, UniProt P11712)
in vitro [2] = settings: human, CEM cells
in vitro [3] = settings: human, pbmc
in vitro [4] = settings: chlorocebus sabaeus, Vero cells

CYP3A4, sequence (P08684 whole entry): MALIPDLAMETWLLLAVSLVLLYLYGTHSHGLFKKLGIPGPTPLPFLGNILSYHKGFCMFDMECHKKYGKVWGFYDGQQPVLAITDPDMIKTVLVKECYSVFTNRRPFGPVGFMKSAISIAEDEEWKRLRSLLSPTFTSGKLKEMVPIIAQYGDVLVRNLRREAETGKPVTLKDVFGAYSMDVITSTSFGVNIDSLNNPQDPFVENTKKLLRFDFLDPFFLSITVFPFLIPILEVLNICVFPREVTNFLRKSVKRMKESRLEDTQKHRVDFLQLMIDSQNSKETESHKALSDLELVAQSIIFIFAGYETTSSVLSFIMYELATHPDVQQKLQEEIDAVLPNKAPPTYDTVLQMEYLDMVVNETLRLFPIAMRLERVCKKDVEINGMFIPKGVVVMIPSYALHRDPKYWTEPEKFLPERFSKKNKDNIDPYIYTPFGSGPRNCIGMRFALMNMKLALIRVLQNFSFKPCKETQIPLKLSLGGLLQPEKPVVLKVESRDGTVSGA
Cytochrome P450 3A4, sequence (P08684 whole entry): as above
Cytochrome P450 2D6, sequence (P10635 whole entry): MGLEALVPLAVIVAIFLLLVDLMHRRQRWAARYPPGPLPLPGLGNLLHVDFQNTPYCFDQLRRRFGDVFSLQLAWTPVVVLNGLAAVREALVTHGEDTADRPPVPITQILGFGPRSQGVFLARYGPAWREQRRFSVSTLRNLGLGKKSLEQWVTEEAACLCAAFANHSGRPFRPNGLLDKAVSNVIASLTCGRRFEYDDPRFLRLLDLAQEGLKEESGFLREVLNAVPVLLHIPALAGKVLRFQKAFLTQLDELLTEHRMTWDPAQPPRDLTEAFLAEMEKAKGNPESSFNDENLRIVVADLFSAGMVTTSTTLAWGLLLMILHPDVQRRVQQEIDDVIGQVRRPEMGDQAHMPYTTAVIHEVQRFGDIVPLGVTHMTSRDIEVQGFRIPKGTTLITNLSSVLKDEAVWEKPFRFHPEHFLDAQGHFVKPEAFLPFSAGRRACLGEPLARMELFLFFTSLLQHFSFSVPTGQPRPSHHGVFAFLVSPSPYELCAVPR
CYP2D6, sequence (P10635 whole entry): as above
CYP2C9, sequence (P11712 whole entry): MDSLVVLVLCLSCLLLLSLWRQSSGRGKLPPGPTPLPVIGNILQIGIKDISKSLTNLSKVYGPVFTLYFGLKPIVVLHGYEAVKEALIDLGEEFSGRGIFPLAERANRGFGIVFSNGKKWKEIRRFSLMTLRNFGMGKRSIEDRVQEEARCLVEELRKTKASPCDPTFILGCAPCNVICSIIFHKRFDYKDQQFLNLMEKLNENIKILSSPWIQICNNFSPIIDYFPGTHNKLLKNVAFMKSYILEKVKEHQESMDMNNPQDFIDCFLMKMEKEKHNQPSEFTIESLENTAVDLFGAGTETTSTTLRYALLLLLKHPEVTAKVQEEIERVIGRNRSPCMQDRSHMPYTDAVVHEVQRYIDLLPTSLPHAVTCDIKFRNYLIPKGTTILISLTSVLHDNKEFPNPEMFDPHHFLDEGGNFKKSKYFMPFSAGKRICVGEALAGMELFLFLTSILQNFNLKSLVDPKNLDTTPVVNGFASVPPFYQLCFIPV
Cytochrome P450 2C9, sequence (P11712 whole entry): as above

EC50 (Hepatitis C virus) [µM]	EC90 (Hepatitis C virus) [µM]	SMILES	CC50 (PBMC) [µM]	CC50 (CCRF-CEM) [µM]	CC50 (in vitro [1]) [µM]	CC50 (Vero) [µM]	IC90 (CYP2D6) [µM]	IC90 (CYP3A4) [µM]	IC50 (Cytochrome P450 1A2) [µM]	IC90 (CYP1A2) [µM]	IC50 (Cytochrome P450 3A4) [µM]	IC50 (Cytochrome P450 2D6) [µM]	IC90 (CYP2C9) [µM]	IC50 (Cytochrome P450 2C9) [µM]	CC50 (in vitro [2]) [µM]	CC50 (in vitro [3]) [µM]	CC50 (in vitro [4]) [µM]
> 1		COC(=O)N[C@H](C(=O)N1CCC[C@H]1c1ncc(-c2ccccc2)[nH]1)C(C)C	> 100	> 100	> 1	> 100											
> 0.1		COC(=O)N[C@H](C(=O)N1CCC[C@H]1c1ncc(-c2ccc(Br)cc2)[nH]1)C(C)C	> 100	50	> 1	48											
0.008	0.052	COC(=O)N[C@H](C(=O)N1CCC[C@H]1c1ncc(-c2ccc(N=[N+]=[N-])cc2)[nH]1)C(C)C	> 100	> 100	> 1	> 100	> 100	96.1	> 100	> 100	5.1	> 100	> 100	> 100			
> 0.1		COC(=O)N[C@H](C(=O)N1CCC[C@H]1c1ncc(-c2ccc(C#N)cc2)[nH]1)C(C)C	> 100	98	> 1	33											
> 0.1		COC(=O)N[C@H](C(=O)N1CCC[C@H]1c1ncc(-c2ccc([N+](=O)[O-])cc2)[nH]1)C(C)C	> 100	> 100	> 1	> 100											
> 0.1		COC(=O)N[C@H](C(=O)N1CCC[C@H]1c1ncc(-c2ccc(OC(F)(F)F)cc2)[nH]1)C(C)C	49		> 1	30									> 100		
> 0.1		COC(=O)N[C@H](C(=O)N1CCC[C@H]1c1ncc(-c2ccc(C(F)(F)F)cc2)[nH]1)C(C)C			> 1	26									> 100	> 100	
> 1		COC(=O)N[C@H](C(=O)N1CCC[C@H]1c1ncc(-c2ccc(OC)cc2)[nH]1)C(C)C	> 100	> 100	> 1	> 100											
1		COC(=O)N[C@H](C(=O)N1CCC[C@H]1c1ncc(-c2ccc(Cl)cc2Cl)[nH]1)C(C)C	56		> 1	15									> 100		
0.0007	0.0029	COC(=O)N[C@H](C(=O)N1CCC[C@H]1c1nc(Br)c(-c2ccc(N=[N+]=[N-])cc2)[nH]1)C(C)C	35	52	> 1	16	> 100	46.1	80.9	> 100	1.5	50.5	> 100	50.5			
0.004	0.014	COC(=O)N[C@H](C(=O)N1CCC[C@H]1c1nc(Cl)c(-c2ccc(N=[N+]=[N-])cc2)[nH]1)C(C)C	94		> 1	12									> 100		
0.002	0.003	COC(=O)N[C@H](C(=O)N1CCC[C@H]1c1nc(I)c(-c2ccc(N=[N+]=[N-])cc2)[nH]1)C(C)C	64.2		> 1	14.2									> 100		
> 0.1		COC(=O)N[C@H](C(=O)N1CCC[C@H]1c1ncc(-c2ccc(-c3ccccc3C(F)(F)F)cc2)[nH]1)C(C)C			> 1										75	24	13
> 0.1		COC(=O)N[C@H](C(=O)N1CCC[C@H]1c1ncc(-c2ccc(-c3cccc(C(F)(F)F)c3)cc2)[nH]1)C(C)C			> 1										32	44	12
> 0.1		COC(=O)N[C@H](C(=O)N1CCC[C@H]1c1ncc(-c2ccc(-c3ccc(OC(F)(F)F)cc3)cc2)[nH]1)C(C)C			> 1										10	11	10
0.005	0.017	COC(=O)N[C@H](C(=O)N1CCC[C@H]1c1ncc(-c2ccc(-c3ccc(O)cc3)cc2)[nH]1)C(C)C			> 1										55	70	13
> 1		COC(=O)N[C@H](C(=O)N1CCC[C@H]1c1ncc(-c2ccc(-c3cccc(O)c3)cc2)[nH]1)C(C)C			> 1	50									> 100	> 100	
> 0.1		COC(=O)N[C@H](C(=O)N1CCC[C@H]1c1ncc(-c2ccc(NS(C)(=O)=O)cc2)[nH]1)C(C)C			> 1	13									> 100	> 100	

SMILES	EC50 (Hepatitis C virus) [µM]	EC90 (Hepatitis C virus) [µM]	CC50 (PBMC) [µM]	CC50 (CCRF-CEM) [µM]	CC50 (in vitro [1]) [µM]	CC50 (Vero) [µM]	IC90 (CYP2D6) [µM]	IC90 (CYP3A4) [µM]	IC50 (Cytochrome P450 1A2) [µM]	IC90 (CYP1A2) [µM]	IC50 (Cytochrome P450 3A4) [µM]	IC50 (Cytochrome P450 2D6) [µM]	IC90 (CYP2C9) [µM]	IC50 (Cytochrome P450 2C9) [µM]	CC50 (in vitro [2]) [µM]	CC50 (in vitro [3]) [µM]	CC50 (in vitro [4]) [µM]
COC(=O)N[C@H](C(=O)N1CCC[C@H]1c1nc(-c2ccc(-c3ccc(C(F)(F)F)cc3)cc2)c[nH]1)C(C)C	0.0046	0.0096	> 100	12	> 1	14	> 100	> 100	82.9	> 100	6.5	62.1	> 100	9.1			
COC(=O)N[C@H](C(=O)N1CCC[C@H]1c1nc(-c2ccc(-c3ccc(CO)cc3)cc2)c[nH]1)C(C)C	0.002	0.009	> 100	67	> 1	59	> 100	> 100	56.7	> 100	6.9	> 100	> 100	31.2			
